Source: patent US20220177508A1, “C10-Cyclic Substituted 13-Membered Macrolides and Uses Thereof” (Zikani Therapeutics, Inc., priority 2018, published 2022)
Converted amounts (≈) assume the structure as drawn.

Tests used:
Format in all cases: cell-based
[1] = tested on: P. aeruginosa MP-3; assay: Broth dilution MIC determination (CLSI), P. aeruginosa MP-3; conditions: Pseudomonas aeruginosa, MP3; strain MP-3, broth dilution
[2] = tested on: S. aureus MP-12; assay: Broth dilution MIC determination (CLSI), S. aureus MP-12; conditions: Staphylococcus aureus, MP12; strain MP-12, broth dilution
[3] = tested on: K. pneumoniae MP-546; assay: Broth dilution MIC determination (CLSI), K. pneumoniae MP-546; conditions: Klebsiella pneumoniae, MP546; strain MP-546, broth dilution
[4] = tested on: E. coli MP-4; assay: Broth dilution MIC determination (CLSI), E. coli MP-4; conditions: Escherichia coli, MP4; strain MP-4, broth dilution; read-out: MIC E. coli MP-4
[5] = tested on: A. baumannii MP-15; assay: Broth dilution MIC determination (CLSI), A. baumannii MP-15; conditions: Acinetobacter baumannii, MP15; strain MP-15, broth dilution; read-out: MIC A. baumanii MP-15
[6] = tested on: K. pneumoniae MP-648; assay: Broth dilution MIC determination (CLSI), K. pneumoniae MP-648; conditions: Klebsiella pneumoniae, MP648; strain MP-648, broth dilution

| Compound | MIC [1] [µg/mL] | MIC [2] [µg/mL] | MIC [3] [µg/mL] | MIC [4] [µg/mL] | MIC [5] [µg/mL] | MIC [6] [µg/mL] |
| --- | --- | --- | --- | --- | --- | --- |
| CCCN1CCC([C@]2(C)COC(=O)C(C)(C)C(=O)[C@H](C)[C@@H](O[C@@H]3O[C@H](C)C[C@H](N(C)C)[C@H]3O)[C@](C)(OC)C[C@@H](C)CN2C)CC1 [Compound 143, (3R,6R,8R,9R,10R)-9-(((2S,3R,4S,6R)-4-(dimethylamino)-3-hydroxy-6-methyltetrahydro-2H-pyran-2-yl)oxy)-8-methoxy-3,4,6,8,10,12,12-heptamethyl-3-(1-propylpiperidin-4-yl)-1-oxa-4-azacyclotridecane-11,13-dione] | > 32 | > 32 | < 4 | < 4 | > 32 | < 4 |
| CO[C@]1(C)C[C@@H](C)CN(C)[C@H](C2CN(C(=O)CCN(C)CC3CC3)C2)COC(=O)C(C)(C)C(=O)[C@H](C)[C@H]1O[C@@H]1O[C@H](C)C[C@H](N(C)C)[C@H]1O [Compound 144, (3R,6R,8R,9R,10R)-3-(1-(3-((cyclopropylmethyl)(methyl)amino)propanoyl)azetidin-3-yl)-9-(((2S,3R,4S,6R)-4-(dimethylamino)-3-hydroxy-6-methyltetrahydro-2H-pyran-2-yl)oxy)-8-methoxy-4,6,8,10,12,12-hexamethyl-1-oxa-4-azacyclotridecane-11,13-dione] | > 32 | > 32 | 4 to 32 (≈ 5.76 to 46 µM) | < 4 | > 32 | > 32 |
| CO[C@]1(C)C[C@@H](C)CN(C)[C@H](C2CN(C(=O)[C@@H]3CCN(CC4CC4)C3)C2)COC(=O)C(C)(C)C(=O)[C@H](C)[C@H]1O[C@@H]1O[C@H](C)C[C@H](N(C)C)[C@H]1O [Compound 145, (3R,6R,8R,9R,10R)-3-(1-((R)-1-(cyclopropylmethyl)pyrrolidine-3-carbonyl)azetidin-3-yl)-9-(((2S,3R,4S,6R)-4-(dimethylamino)-3-hydroxy-6-methyltetrahydro-2H-pyran-2-yl)oxy)-8-methoxy-4,6,8,10,12,12-hexamethyl-1-oxa-4-azacyclotridecane-11,13-dione] | > 32 | > 32 | 4 to 32 (≈ 5.66 to 45.3 µM) | < 4 | > 32 | 4 to 32 (≈ 5.66 to 45.3 µM) |
| CO[C@]1(C)C[C@@H](C)CN(C)[C@H](C2CN(CC3CC3)C2)[C@@H](C)OC(=O)C(C)(C)C(=O)[C@H](C)[C@H]1O[C@@H]1O[C@H](C)C[C@H](N(C)C)[C@H]1O [Compound 146, (2R,3R,6R,8R,9R,10R)-3-(1-(cyclopropylmethyl)azetidin-3-yl)-9-(((2S,3R,4S,6R)-4-(dimethylamino)-3-hydroxy-6-methyltetrahydro-2H-pyran-2-yl)oxy)-8-methoxy-2,4,6,8,10,12,12-heptamethyl-1-oxa-4-azacyclotridecane-11,13-dione] | > 32 | > 32 | > 32 | 4 to 32 (≈ 6.41 to 51.3 µM) | > 32 | > 32 |
| CO[C@]1(C)C[C@@H](C)CN(C)[C@H](C2CCN(C(C)C)CC2)COC(=O)C(C)(C)C(=O)[C@H](C)[C@H]1O[C@@H]1O[C@H](C)C[C@H](N(C)C)[C@H]1O [Compound 151] | > 32 | > 32 | < 4 | < 4 | > 32 | < 4 |
| CO[C@]1(C)C[C@@H](C)CN(C)[C@H](C2CN(C(=O)CCCN(C)CC3CCC3)C2)COC(=O)C(C)(C)C(=O)[C@H](C)[C@H]1O[C@@H]1O[C@H](C)C[C@H](N(C)C)[C@H]1O [Compound 156, (3R,6R,8R,9R,10R)-3-(1-(4-((cyclobutylmethyl)(methyl)amino)butanoyl)azetidin-3-yl)-9-(((2S,3R,4S,6R)-4-(dimethylamino)-3-hydroxy-6-methyltetrahydro-2H-pyran-2-yl)oxy)-8-methoxy-4,6,8,10,12,12-hexamethyl-1-oxa-4-azacyclotridecane-11,13-dione] | > 32 | > 32 | 4 to 32 (≈ 5.53 to 44.3 µM) | < 4 | > 32 | 4 to 32 (≈ 5.53 to 44.3 µM) |

More lines, now with the values ahead:

| MIC [1] [µg/mL] | MIC [2] [µg/mL] | MIC [3] [µg/mL] | MIC [4] [µg/mL] | MIC [5] [µg/mL] | MIC [6] [µg/mL] | Compound |
| --- | --- | --- | --- | --- | --- | --- |
| > 32 | 4 to 32 (≈ 6.25 to 50 µM) | 4 to 32 (≈ 6.25 to 50 µM) | < 4 | > 32 | 4 to 32 (≈ 6.25 to 50 µM) | CO[C@]1(C)C[C@@H](C)CN(C)[C@H](C2CN(CC3CCOC3)C2)COC(=O)C(C)(C)C(=O)[C@H](C)[C@H]1O[C@@H]1O[C@H](C)C[C@H](N(C)C)[C@H]1O (stereo partly drawn) [Compound 127, (3R,6R,8R,9R,10R)-9-(((2S,3R,4S,6R)-4-(dimethylamino)-3-hydroxy-6-methyltetrahydro-2H-pyran-2-yl)oxy)-8-methoxy-4,6,8,10,12,12-hexamethyl-3-(1-((tetrahydrofuran-3-yl)methyl)azetidin-3-yl)-1-oxa-4-azacyclotridecane-11,13-dione] |
| > 32 | > 32 | 4 to 32 (≈ 6.69 to 53.5 µM) | < 4 | > 32 | 4 to 32 (≈ 6.69 to 53.5 µM) | CO[C@]1(C)C[C@@H](C)CN(C)[C@H]([C@H]2C[C@@H](N(C)C)C2)COC(=O)C(C)(C)C(=O)[C@H](C)[C@H]1O[C@@H]1O[C@H](C)C[C@H](N(C)C)[C@H]1O [Compound 128, (3R,6R,8R,9R,10R)-9-(((2S,3R,4S,6R)-4-(dimethylamino)-3-hydroxy-6-methyltetrahydro-2H-pyran-2-yl)oxy)-3-((1s,3S)-3-(dimethylamino)cyclobutyl)-8-methoxy-4,6,8,10,12,12-hexamethyl-1-oxa-4-azacyclotridecane-11,13-dione] |
| > 32 | 4 to 32 (≈ 6.25 to 50 µM) | < 4 | < 4 | 4 to 32 (≈ 6.25 to 50 µM) | < 4 | CO[C@]1(C)C[C@@H](C)CN(C)[C@H]([C@H]2C[C@H](N(C)CC(C)C)C2)COC(=O)C(C)(C)C(=O)[C@H](C)[C@H]1O[C@@H]1O[C@H](C)C[C@H](N(C)C)[C@H]1O [Compound 131, (3R,6R,8R,9R,10R)-9-(((2S,3R,4S,6R)-4-(dimethylamino)-3-hydroxy-6-methyltetrahydro-2H-pyran-2-yl)oxy)-3-((1r,3R)-3-(isobutyl(methyl)amino)cyclobutyl)-8-methoxy-4,6,8,10,12,12-hexamethyl-1-oxa-4-azacyclotridecane-11,13-dione] |
| > 32 | 4 to 32 (≈ 6.15 to 49.2 µM) | 4 to 32 (≈ 6.15 to 49.2 µM) | 4 to 32 (≈ 6.15 to 49.2 µM) | > 32 | > 32 | CO[C@]1(C)C[C@@H](C)CN(C)[C@H](C2CN(Cc3cc(C)on3)C2)COC(=O)C(C)(C)C(=O)[C@H](C)[C@H]1O[C@@H]1O[C@H](C)C[C@H](N(C)C)[C@H]1O [Compound 132, (3R,6R,8R,9R,10R)-9-(((2S,3R,4S,6R)-4-(dimethylamino)-3-hydroxy-6-methyltetrahydro-2H-pyran-2-yl)oxy)-8-methoxy-4,6,8,10,12,12-hexamethyl-3-(1-((5-methylisoxazol-3-yl)methyl)azetidin-3-yl)-1-oxa-4-azacyclotridecane-11,13-dione] |
| > 32 | > 32 | > 32 | 4 to 32 (≈ 5.86 to 46.9 µM) | > 32 | 4 to 32 (≈ 5.86 to 46.9 µM) | CCN(C)CCCC(=O)N1CC([C@@H]2COC(=O)C(C)(C)C(=O)[C@H](C)[C@@H](O[C@@H]3O[C@H](C)C[C@H](N(C)C)[C@H]3O)[C@](C)(OC)C[C@@H](C)CN2C)C1 [Compound 135, (3R,6R,8R,9R,10R)-9-(((2S,3R,4S,6R)-4-(dimethylamino)-3-hydroxy-6-methyltetrahydro-2H-pyran-2-yl)oxy)-3-(1-(4-(ethyl(methyl)amino)butanoyl)azetidin-3-yl)-8-methoxy-4,6,8,10,12,12-hexamethyl-1-oxa-4-azacyclotridecane-11,13-dione] |
| > 32 | > 32 | > 32 | 4 to 32 (≈ 6.54 to 52.3 µM) | > 32 | > 32 | CCCN1CC([C@@H]2[C@@H](C)OC(=O)C(C)(C)C(=O)[C@H](C)[C@@H](O[C@@H]3O[C@H](C)C[C@H](N(C)C)[C@H]3O)[C@](C)(OC)C[C@@H](C)CN2C)C1 [Compound 136, (2R,3R,6R,8R,9R,10R)-9-(((2S,3R,4S,6R)-4-(dimethylamino)-3-hydroxy-6-methyltetrahydro-2H-pyran-2-yl)oxy)-8-methoxy-2,4,6,8,10,12,12-heptamethyl-3-(1-propylazetidin-3-yl)-1-oxa-4-azacyclotridecane-11,13-dione] |
| > 32 | 4 to 32 (≈ 6 to 48 µM) | < 4 | < 4 | > 32 | 4 to 32 (≈ 6 to 48 µM) | CO[C@]1(C)C[C@@H](C)CN(C)[C@H](C2CN(C(=O)CN3CCCC3)C2)COC(=O)C(C)(C)C(=O)[C@H](C)[C@H]1O[C@@H]1O[C@H](C)C[C@H](N(C)C)[C@H]1O [Compound 138, (3R,6R,8R,9R,10R)-9-(((2S,3R,4S,6R)-4-(dimethylamino)-3-hydroxy-6-methyltetrahydro-2H-pyran-2-yl)oxy)-8-methoxy-4,6,8,10,12,12-hexamethyl-3-(1-(2-(pyrrolidin-1-yl)acetyl)azetidin-3-yl)-1-oxa-4-azacyclotridecane-11,13-dione] |
| > 32 | > 32 | > 32 | 4 to 32 (≈ 5.98 to 47.8 µM) | > 32 | > 32 | CO[C@]1(C)C[C@@H](C)CN(C)[C@H](C2CN(C(=O)CCCN(C)C)C2)COC(=O)C(C)(C)C(=O)[C@H](C)[C@H]1O[C@@H]1O[C@H](C)C[C@H](N(C)C)[C@H]1O [Compound 139, (3R,6R,8R,9R,10R)-9-(((2S,3R,4S,6R)-4-(dimethylamino)-3-hydroxy-6-methyltetrahydro-2H-pyran-2-yl)oxy)-3-(1-(4-(dimethylamino)butanoyl)azetidin-3-yl)-8-methoxy-4,6,8,10,12,12-hexamethyl-1-oxa-4-azacyclotridecane-11,13-dione] |
